This assay deals with T1, SARM1 (50-724) (Homo sapiens, UniProt Q6SZW1).
T1 construct: Purified SARM1 (50-724) with a final concentration of 2 nM was pre-incubated with a test compound
T1 sequence (Q6SZW1 50-724): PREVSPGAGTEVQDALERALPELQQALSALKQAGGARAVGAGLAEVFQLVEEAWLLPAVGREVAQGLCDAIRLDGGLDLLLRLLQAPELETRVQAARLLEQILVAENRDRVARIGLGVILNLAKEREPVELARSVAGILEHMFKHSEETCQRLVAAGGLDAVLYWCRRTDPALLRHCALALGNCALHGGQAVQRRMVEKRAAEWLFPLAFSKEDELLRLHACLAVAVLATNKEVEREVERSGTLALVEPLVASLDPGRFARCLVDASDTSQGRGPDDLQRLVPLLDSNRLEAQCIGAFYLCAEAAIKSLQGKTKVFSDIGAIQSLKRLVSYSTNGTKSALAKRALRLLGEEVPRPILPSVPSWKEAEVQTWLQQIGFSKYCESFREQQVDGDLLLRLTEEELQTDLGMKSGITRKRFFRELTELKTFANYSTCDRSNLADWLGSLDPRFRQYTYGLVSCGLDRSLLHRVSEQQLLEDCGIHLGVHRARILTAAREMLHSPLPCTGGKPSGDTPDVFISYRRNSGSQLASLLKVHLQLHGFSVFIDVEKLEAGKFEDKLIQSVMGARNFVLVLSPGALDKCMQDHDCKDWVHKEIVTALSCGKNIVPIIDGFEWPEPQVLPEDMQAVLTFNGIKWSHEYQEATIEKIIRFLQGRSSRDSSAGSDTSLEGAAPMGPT
The assay can be described thus: SARM1 (50-724) enzymatic assay (LC-MS/MS). The format is biochemical. To be noted: Purified SARM1 (50-724) 2 nM, NMN as activator, NAD+ as substrate, 1 h at room temperature, read-out: IC50 (SARM1 inhibitory activity). The essentials: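 Reaction buffer was Dulbecco's PBS. Compound and 2 nM human SARM1 (50-724) were pre-incubated 15 min at room temperature, then […] NAD^+ and 200 µM NMN activator were added for 1 h at room temperature. Acetonitrile (70%) stop, LC-MS/MS read-out, IC50 values.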
For `O=S1(=O)CCN(c2ccc(Cl)c(-n3cnnc3-c3nc4cc(C(F)(F)F)ccc4[nH]3)n2)CC1` [Compound 201, 4-(5-chloro-6-(3-(5-(trifluoromethyl)-1H-benzo[d]imidazol-2-yl)-4H-1,2,4-triazol-4-yl)pyridin-2-yl)thiomorpholine 1,1-dioxide], the IC50 is ≤ 0.1 µM.
The same measure for `CS(=O)(=O)Cc1nnc(-c2nc3cc(C(F)(F)F)cc(F)c3[nH]2)n1-c1cccc(F)c1Cl` [Compound 182, 2-(4-(2-Chloro-3-fluorophenyl)-5-((methylsulfonyl)methyl)-4H-1,2,4-triazol-3-yl)-7-fluoro-5-(trifluoromethyl)-1H-benzo[d]imidazole]: ≤ 0.1 µM.
With `FC(F)(F)O[C@@H]1CCOC[C@H]1n1cnnc1-c1nc2cc(C(F)(F)F)ccc2[nH]1` (racemic) [Compound 239, 2-(4-((3R,4R)-4-(trifluoromethoxy)tetrahydro-2H-pyran-3-yl)-4H-1,2,4-triazol-3-yl)-5-(trifluoromethyl)-1H-benzo[d]imidazole], the IC50 was ≤ 0.1 µM.
For `NC1CC1c1ccc2[nH]c(-c3nncn3-c3cnccc3C(F)(F)F)nc2c1F` (centres unmarked) [Compound 324, 2-(4-fluoro-2-(4-(4-(trifluoromethyl)pyridin-3-yl)-4H-1,2,4-triazol-3-yl)-1H-benzo[d]imidazol-5-yl)cyclopropan-1-amine], the IC50 is 0.1 to 0.5 µM.
For the compound `NC(=O)c1nc(Cl)c(-n2cnnc2-c2nc3cc(C(F)(F)F)cc(F)c3[nH]2)s1` [Compound 216, 4-chloro-5-(3-(7-fluoro-5-(trifluoromethyl)-1H-benzo[d]imidazol-2-yl)-4H-1,2,4-triazol-4-yl)thiazole-2-carboxamide], the IC50 was 0.1 to 0.5 µM.
The same measure for `FC(F)(F)c1cc2cc(-c3nncn3-c3cnccc3C(F)(F)F)[nH]c2cn1` [Compound 299, 5-(trifluoromethyl)-2-(4-(4-(trifluoromethyl)pyridin-3-yl)-4H-1,2,4-triazol-3-yl)-1H-pyrrolo[2,3-c]pyridine]: > 1 µM; for `Cc1cc(-c2ccc3[nH]c(-c4nncn4-c4cccc(Cl)c4Cl)nc3c2)sn1` [Example 80, 5-(2-(4-(2,3-dichlorophenyl)-4H-1,2,4-triazol-3-yl)-1H-benzo[d]imidazol-5-yl)-3-methylisothiazole]: 0.1 to 0.5 µM; for `CS(=O)(=O)Cc1nnc(-c2nc3cc(C4(F)CC4)cc(F)c3[nH]2)n1-c1cccc(F)c1Cl` [Compound 203, 2-(4-(2-chloro-3-fluorophenyl)-5-((methylsulfonyl)methyl)-4H-1,2,4-triazol-3-yl)-7-fluoro-5-(1-fluorocyclopropyl)-1H-benzo[d]imidazole]: ≤ 0.1 µM.
Consider `Fc1ccc(-n2cnnc2-c2nc3cc(C(F)(F)F)ccc3[nH]2)c(OC(F)(F)F)c1` [Compound 189, 2-(4-(4-fluoro-2-(trifluoromethoxy)phenyl)-4H-1,2,4-triazol-3-yl)-5-(trifluoromethyl)-1H-benzo[d]imidazole], for which the IC50 is ≤ 0.1 µM.
Turning to `OCc1cc(-n2cnnc2-c2nc3cc(C(F)(F)F)ccc3[nH]2)c(OC(F)(F)F)cn1` [Compound 253, (5-(trifluoromethoxy)-4-(3-(5-(trifluoromethyl)-1H-benzo[d]imidazol-2-yl)-4H-1,2,4-triazol-4-yl)pyridin-2-yl)methanol], the IC50 was ≤ 0.1 µM.
As to `OCC1(c2ccc3[nH]c(-c4nncn4-c4cccc(Cl)c4Cl)nc3c2)CCC1` [Example 130], the IC50 was ≤ 0.1 µM.
Consider `NC(=O)C1CC1c1ccc2[nH]c(-c3nncn3-c3cnccc3C(F)(F)F)nc2c1F` (centres unmarked) [Compound 321, 2-(4-fluoro-2-(4-(4-(trifluoromethyl)pyridin-3-yl)-4H-1,2,4-triazol-3-yl)-1H-benzo[d]imidazol-5-yl)cyclopropane-1-carboxamide], for which the IC50 is ≤ 0.1 µM.
For `Fc1cc(C2CC2(F)F)cc2nc(-c3nncn3-c3cnccc3C(F)(F)F)[nH]c12` (centres unmarked) [Compound 298, 5-(2,2-difluorocyclopropyl)-7-fluoro-2-(4-(4-(trifluoromethyl)pyridin-3-yl)-4H-1,2,4-triazol-3-yl)-1H-benzo[d]imidazole], the IC50 is ≤ 0.1 µM.
The result for `N#Cc1c(Cl)ccc2[nH]c(-c3nncn3-c3cccc(Cl)c3Cl)nc12` [Example 50, 5-chloro-2-(4-(2,3-dichlorophenyl)-4H-1,2,4-triazol-3-yl)-1H-benzo[d]imidazole-4-carbonitrile] reads 0.1 to 0.5 µM; that for `FC(F)(F)Oc1cnc(C2CC2)cc1-n1cnnc1-c1nc2cc(C(F)(F)F)ccc2[nH]1` [Compound 221, 2-(4-(2-cyclopropyl-5-(trifluoromethoxy)pyridin-4-yl)-4H-1,2,4-triazol-3-yl)-5-(trifluoromethyl)-1H-benzo[d]imidazole], ≤ 0.1 µM; that for `Clc1cccc(-n2cnnc2-c2nc3cc(-c4cnn[nH]4)ccc3[nH]2)c1Cl` [Example 56, 2-(4-(2,3-dichlorophenyl)-4H-1,2,4-triazol-3-yl)-5-(1H-1,2,3-triazol-5-yl)-1H-benzo[d]imidazole], 0.1 to 0.5 µM.
In the case of `Fc1cc(C2CC2)cc2nc(-c3nncn3-c3cnccc3C(F)(F)F)[nH]c12` [Compound 270, 5-cyclopropyl-7-fluoro-2-(4-(4-(trifluoromethyl)pyridin-3-yl)-4H-1,2,4-triazol-3-yl)-1H-benzo[d]imidazole], the IC50 is ≤ 0.1 µM.
For the compound `CS(=O)(=O)Cc1nnc(-c2nc3c(F)c(C(F)(F)F)ccc3[nH]2)n1-c1cccc(F)c1Cl` (racemic) [Compound 195, 2-(4-(2-chloro-3-fluorophenyl)-5-((methylsulfonyl)methyl)-4H-1,2,4-triazol-3-yl)-4-fluoro-5-(trifluoromethyl)-1H-benzo[d]imidazole], the IC50 was ≤ 0.1 µM.
As for `Cn1cc(-c2ccc3[nH]c(-c4nncn4-c4cccc(Cl)c4Cl)nc3c2)cn1` [Example 79, 2-(4-(2,3-dichlorophenyl)-4H-1,2,4-triazol-3-yl)-5-(1-methyl-1H-pyrazol-4-yl)-1H-benzo[d]imidazole], the IC50 lay in the range of 0.1 to 0.5 µM.
`CN(C)c1ccncc1-n1cnnc1-c1nc2cc(C(F)(F)F)ccc2[nH]1` [Compound 245, N,N-dimethyl-3-(3-(5-(trifluoromethyl)-1H-benzo[d]imidazol-2-yl)-4H-1,2,4-triazol-4-yl)pyridin-4-amine]: the IC50 was ≤ 0.1 µM.
For `O=c1cc(-c2nc3cc(C(F)(F)F)ccc3[nH]2)c(-c2cccc(Cl)c2Cl)cn1CCO` [Example 64], the IC50 is ≤ 0.1 µM.
On to `COCCOc1c(Cl)ccc2[nH]c(-c3nncn3-c3cnccc3C(F)(F)F)nc12` [Compound 371, 5-chloro-4-(2-methoxyethoxy)-2-(4-(4-(trifluoromethyl)pyridin-3-yl)-4H-1,2,4-triazol-3-yl)-1H-benzo[d]imidazole], for which the IC50 is 0.1 to 0.5 µM.
Regarding `O=C1CCCN1c1c(-c2nncn2-c2cnccc2C(F)(F)F)[nH]c2ccc(C(F)(F)F)cc12` [Compound 367, 1-(5-(trifluoromethyl)-2-(4-(4-(trifluoromethyl)pyridin-3-yl)-4H-1,2,4-triazol-3-yl)-1H-indol-3-yl)pyrrolidin-2-one], the half-maximal inhibitory concentration (IC50) is > 1 µM.
As to `FC(F)(F)c1ccncc1-n1cnnc1-c1nc2cc(C34COC(C3)C4)ccc2[nH]1` [Compound 362, 5-(2-oxabicyclo[2.1.1]hexan-4-yl)-2-[4-[4-(trifluoromethyl)-3-pyridyl]-1,2,4-triazol-3-yl]-1H-benzimidazole], the IC50 is 0.1 to 0.5 µM.
On to `NC(=O)c1cc(-c2nc3cc(C(F)(F)F)ccc3[nH]2)n(-c2cccc(F)c2Cl)n1` [Compound 397, 1-(2-chloro-3-fluorophenyl)-5-(5-(trifluoromethyl)-1H-benzo[d]imidazol-2-yl)-1H-pyrazole-3-carboxamide], for which the IC50 is ≤ 0.1 µM.
`Clc1cccc(-n2cnnc2-c2nc3cc(C4CCCO4)ccc3[nH]2)c1Cl` (centres unmarked) [Compound 136, 2-(4-(2,3-dichlorophenyl)-4H-1,2,4-triazol-3-yl)-5-(tetrahydrofuran-2-yl)-1H-benzo[d]imidazole]: the IC50 was ≤ 0.1 µM.
For `O=c1ccc(C(F)(F)F)c(-n2cnnc2-c2nc3cc(C(F)(F)F)ccc3[nH]2)[nH]1` [Compound 280, 5-(trifluoromethyl)-6-(3-(5-(trifluoromethyl)-1H-benzo[d]imidazol-2-yl)-4H-1,2,4-triazol-4-yl)pyridin-2(1H)-one], the IC50 is ≤ 0.1 µM.
The same measure for `FC(F)(F)c1ccc2[nH]c(N3CCC3c3ccccc3)nc2c1` (centres unmarked) [Compound 344, 2-(2-phenylazetidin-1-yl)-5-(trifluoromethyl)-1H-benzo[d]imidazole]: 0.5 to 1 µM; for `NC(=O)c1ncc(-c2nc3cc(C(F)(F)F)ccc3[nH]2)n1-c1cccc(Cl)c1Cl` [Example 89, 1-(2,3-dichlorophenyl)-5-(5-(trifluoromethyl)-1H-benzo[d]imidazol-2-yl)-1H-imidazole-2-carboxamide]: 0.1 to 0.5 µM.

For the origin of these results see patent US20260258064A1 (SIRONAX LTD., priority 2023, published 2026).
